Assay results reported in patent US20230117470A1, “SUBSTITUTED PYRAZOLE COMPOUNDS AS TOLL RECEPTOR INHIBITORS” (BRISTOL-MYERS SQUIBB COMPANY, priority 2019, published 2023).

Tests used:
Format in all cases: cell-based
human TLR9 = target: T1, human TLR9 (Homo sapiens, UniProt Q9NR96); assay: TLR9 inhibition reporter assay (HEK-Blue cells, SEAP reporter, ODN2006 stimulation); conditions: HEK-Blue cells overexpressing human TLR9, SEAP reporter, ODN2006 5 nM
T1 construct: host or cells: HEK-Blue cells
T1 sequence (Q9NR96 26-1032): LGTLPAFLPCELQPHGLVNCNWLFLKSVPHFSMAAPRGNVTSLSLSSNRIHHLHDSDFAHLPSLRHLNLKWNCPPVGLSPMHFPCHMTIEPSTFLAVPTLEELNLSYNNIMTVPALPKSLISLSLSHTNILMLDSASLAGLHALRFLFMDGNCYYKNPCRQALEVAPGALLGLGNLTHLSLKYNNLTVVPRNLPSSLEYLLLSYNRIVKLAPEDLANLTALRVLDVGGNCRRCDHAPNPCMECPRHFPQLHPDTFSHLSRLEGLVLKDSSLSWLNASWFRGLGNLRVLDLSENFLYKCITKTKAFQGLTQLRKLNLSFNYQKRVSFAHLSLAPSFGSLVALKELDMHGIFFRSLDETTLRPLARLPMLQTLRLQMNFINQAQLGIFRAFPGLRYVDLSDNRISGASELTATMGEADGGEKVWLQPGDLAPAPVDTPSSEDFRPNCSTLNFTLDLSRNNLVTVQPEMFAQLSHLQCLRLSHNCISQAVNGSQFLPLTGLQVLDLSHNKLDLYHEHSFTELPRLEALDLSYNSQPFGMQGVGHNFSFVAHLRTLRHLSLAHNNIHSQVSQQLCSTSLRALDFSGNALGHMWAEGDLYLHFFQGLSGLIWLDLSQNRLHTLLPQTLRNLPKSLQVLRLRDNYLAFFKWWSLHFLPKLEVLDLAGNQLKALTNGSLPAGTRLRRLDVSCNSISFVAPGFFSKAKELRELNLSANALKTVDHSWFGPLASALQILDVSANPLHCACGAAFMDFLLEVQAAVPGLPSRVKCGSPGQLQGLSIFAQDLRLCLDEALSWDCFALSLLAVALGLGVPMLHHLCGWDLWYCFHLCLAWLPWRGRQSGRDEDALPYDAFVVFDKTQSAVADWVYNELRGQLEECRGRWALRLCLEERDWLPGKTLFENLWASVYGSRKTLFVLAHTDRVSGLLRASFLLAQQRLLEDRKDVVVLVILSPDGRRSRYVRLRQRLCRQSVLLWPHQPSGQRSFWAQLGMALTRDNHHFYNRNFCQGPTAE
Outline: (§1)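 30 min RT cpd pre-incubation (0.05 nM–50 μM final dose response) → agonist: gardiquimod 7.5 μM / R848 15.9 μM / ODN2006 5 nM for TLR7/8/9 resp. → 22 h, 37° C → SEAP via detection medium. % inhibition vs agonist+DMSO and reference inhibitor controls.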

human TLR8 = target: T2, human TLR8 (Homo sapiens, UniProt Q9NR97); assay: TLR8 inhibition reporter assay (HEK-Blue cells, SEAP reporter, R848 stimulation); conditions: HEK-Blue cells overexpressing human TLR8, SEAP reporter, R848 15.9 μM
T2 construct: host or cells: HEK-Blue cells
T2 sequence (Q9NR97 27-1041): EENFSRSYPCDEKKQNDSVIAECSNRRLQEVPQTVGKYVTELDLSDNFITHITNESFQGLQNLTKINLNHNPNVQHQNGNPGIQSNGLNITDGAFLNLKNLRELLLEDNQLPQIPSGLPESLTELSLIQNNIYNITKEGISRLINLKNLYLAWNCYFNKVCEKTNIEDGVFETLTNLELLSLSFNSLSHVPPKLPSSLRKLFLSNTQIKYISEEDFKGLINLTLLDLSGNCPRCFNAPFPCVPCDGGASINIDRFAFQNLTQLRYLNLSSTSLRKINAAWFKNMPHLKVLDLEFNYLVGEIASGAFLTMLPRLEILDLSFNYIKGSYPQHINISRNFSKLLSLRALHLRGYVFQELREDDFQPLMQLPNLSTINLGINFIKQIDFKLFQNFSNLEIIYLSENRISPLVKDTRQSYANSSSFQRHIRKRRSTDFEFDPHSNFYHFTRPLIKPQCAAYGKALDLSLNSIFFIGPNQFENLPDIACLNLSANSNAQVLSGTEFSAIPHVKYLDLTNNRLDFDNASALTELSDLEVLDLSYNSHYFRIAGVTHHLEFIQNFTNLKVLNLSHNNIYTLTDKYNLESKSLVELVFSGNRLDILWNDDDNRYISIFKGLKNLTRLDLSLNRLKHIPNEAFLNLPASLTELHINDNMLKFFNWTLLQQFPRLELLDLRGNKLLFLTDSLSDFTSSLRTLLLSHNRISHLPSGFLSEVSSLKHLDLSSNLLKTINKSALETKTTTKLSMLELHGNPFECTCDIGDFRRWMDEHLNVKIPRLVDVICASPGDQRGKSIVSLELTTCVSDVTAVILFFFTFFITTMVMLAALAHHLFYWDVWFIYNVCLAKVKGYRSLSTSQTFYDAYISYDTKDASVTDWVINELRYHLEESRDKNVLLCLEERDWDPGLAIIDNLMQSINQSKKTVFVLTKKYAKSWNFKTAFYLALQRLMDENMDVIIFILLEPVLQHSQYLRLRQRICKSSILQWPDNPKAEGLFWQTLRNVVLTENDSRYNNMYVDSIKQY
Outline: as §1

human TLR7 = target: T3, human TLR7 (Homo sapiens, UniProt Q9NYK1); assay: TLR7 inhibition reporter assay (HEK-Blue cells, SEAP reporter, gardiquimod stimulation); conditions: HEK-Blue cells overexpressing human TLR7, SEAP reporter, gardiquimod 7.5 μM
T3 construct: host or cells: HEK-Blue cells
T3 sequence (Q9NYK1 27-1049): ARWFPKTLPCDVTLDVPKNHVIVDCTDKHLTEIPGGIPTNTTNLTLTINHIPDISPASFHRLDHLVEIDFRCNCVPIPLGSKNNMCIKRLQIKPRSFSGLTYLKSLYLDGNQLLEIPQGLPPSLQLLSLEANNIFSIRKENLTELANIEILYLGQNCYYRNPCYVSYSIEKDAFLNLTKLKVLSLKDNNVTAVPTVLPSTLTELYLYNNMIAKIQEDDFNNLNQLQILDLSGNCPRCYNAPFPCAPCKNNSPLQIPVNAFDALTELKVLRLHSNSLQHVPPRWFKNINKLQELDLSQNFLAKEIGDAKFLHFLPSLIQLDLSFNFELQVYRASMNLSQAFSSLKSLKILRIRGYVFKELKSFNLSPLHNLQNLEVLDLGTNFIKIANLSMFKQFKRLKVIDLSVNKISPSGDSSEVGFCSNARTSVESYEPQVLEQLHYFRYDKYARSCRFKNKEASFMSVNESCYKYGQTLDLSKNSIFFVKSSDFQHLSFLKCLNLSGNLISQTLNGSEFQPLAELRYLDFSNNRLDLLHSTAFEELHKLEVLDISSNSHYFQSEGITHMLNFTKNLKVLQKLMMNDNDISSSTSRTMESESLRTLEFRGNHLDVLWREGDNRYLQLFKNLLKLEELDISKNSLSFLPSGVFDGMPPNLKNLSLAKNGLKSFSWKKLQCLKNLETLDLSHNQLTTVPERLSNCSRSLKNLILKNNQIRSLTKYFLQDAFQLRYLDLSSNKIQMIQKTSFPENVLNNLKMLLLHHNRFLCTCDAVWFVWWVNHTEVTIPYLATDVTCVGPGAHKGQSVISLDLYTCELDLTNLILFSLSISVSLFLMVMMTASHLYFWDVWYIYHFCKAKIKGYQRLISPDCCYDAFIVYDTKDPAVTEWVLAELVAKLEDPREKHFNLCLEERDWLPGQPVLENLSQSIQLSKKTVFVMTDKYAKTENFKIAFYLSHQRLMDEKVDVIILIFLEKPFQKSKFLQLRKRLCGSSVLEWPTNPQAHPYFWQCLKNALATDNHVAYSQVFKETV
Outline: as §1

IC50 (human TLR9) | IC50 (human TLR8) | IC50 (human TLR7) | Structure (SMILES)
21900 nM | 1.3 nM | 4.38 nM | COc1cc(-c2[nH]nc(-c3ccc(C4CCN(CC(F)(F)F)CC4)cc3)c2C(C)C)cn2ncnc12 [Example 320]
35600 nM | 8.4 nM | 19.9 nM | COc1cc(-c2[nH]nc(-c3ccc(C4CCN(CC5CCOCC5)CC4)cn3)c2C(C)C)cn2ncnc12 [Example 375]
8880 nM | 2.49 nM | 10.7 nM | Cc1cc(-c2[nH]nc(-c3ncc(C4CCN(C(C)C(C)C)CC4)cn3)c2C(C)C)cn2ncnc12 (stereo not drawn) [Example 372]
> 50000 nM | 154 nM | 60.8 nM | Cc1cc(-c2[nH]nc(-c3ccc4c(c3)CCN(C(C)C)C4)c2C(C)C)cn2ncnc12 [Example 246]
22900 nM | 0.65 nM | 2.6 nM | Cc1cc(-c2[nH]nc(-c3cccc(N(C)C)c3)c2C(C)C)cn2ncnc12 [Example 245]
> 50000 nM | 20.2 nM | 5.22 nM | CCN1CCC(c2ccc(-c3n[nH]c(-c4cc(OC)c5ncnn5c4)c3C(C)C)cc2)CC1 [Example 315]
16800 nM | 0.39 nM | 7.65 nM | Cc1cc(-c2[nH]nc(C3CCC(N4CCOCC4)CC3)c2C(C)C)cn2ncnc12 (single isomer, unassigned) [Example 291]
> 50000 nM | 16.7 nM | 4.19 nM | Cc1cc(-c2[nH]nc(C(=O)N[C@H]3CC[C@H](NC(C)CC(C)(C)C)CC3)c2C(C)C)cn2ncnc12 (stereo partly drawn) [Example 120]
3330 nM | 2.03 nM | 5.04 nM | Cc1cc(-c2[nH]nc(C(=O)N3CCC(N(C)C)CC3)c2C(C)C)cn2ncnc12 [Example 13]
23800 nM | 1.24 nM | 1.8 nM | Cc1cc(-c2[nH]nc(C3CCN(C(=O)CCNC(C)C)CC3)c2C(C)C)cn2ncnc12 [compound 210]
14300 nM | 0.58 nM | 0.79 nM | CNC(=O)CN1CCC(c2n[nH]c(-c3cc(C)c4ncnn4c3)c2C(C)C)CC1 [Example 211, 2-(4-(4-isopropyl-5-(8-methyl-[1,2,4]triazolo[1,5-a]pyridin-6-yl)-1H-pyrazol-3-yl)piperidin-1-yl)-N-methylacetamide]
7800 nM | 27.1 nM | 1.09 nM | Cc1cc(-c2[nH]nc(C(=O)N[C@H]3CC[C@H](NCc4cncnc4)CC3)c2C(C)C)cn2ncnc12 [Example 113]
4960 nM | 0.73 nM | 1.26 nM | Cc1cc(-c2[nH]nc(C3CCC(NCC4(C)COC4)CC3)c2C(C)C)cn2ncnc12 (single isomer, unassigned) [Example 280]
10800 nM | 0.33 nM | 1.43 nM | Cc1cc(-c2[nH]nc(-c3ccc4c(c3)CCNC4)c2C(C)C)cc(C)n1 [Example 278, 6-(5-(2,6-dimethylpyridin-4-yl)-4-isopropyl-1H-pyrazol-3-yl)-1,2,3,4-tetrahydroisoquinoline]
23000 nM | 3.38 nM | 7.42 nM | CNCc1n[nH]c(-c2cc(C)c3ncnn3c2)c1C(C)C [Example 185]
19800 nM | 1.19 nM | 6.34 nM | CCN1CCc2nc(-c3n[nH]c(-c4cc(C)c5ncnn5c4)c3C(C)C)ncc2C1 [Example 249]
22400 nM | 38.9 nM | 6.8 nM | Cc1cc(-c2[nH]nc(C(=O)NCC3CN(C(C)C)CCO3)c2C(C)C)cn2ncnc12 (stereo not drawn) [Example 135]
43300 nM | 43.6 nM | 46.8 nM | Cc1cc(-c2[nH]nc(-c3ncc4c(n3)CCN(C(C)C)C4)c2C(C)C)cn2ncnc12 [Example 250]
5780 nM | 0.93 nM | 2.21 nM | CCC(CC)CN[C@H]1CC[C@H](NC(=O)c2n[nH]c(-c3cc(C)c4ncnn4c3)c2C(C)C)CC1 [Example 110]
6090 nM | 27.9 nM | 6.81 nM | Cc1cc(-c2[nH]nc(C(=O)N[C@H]3CC[C@H](NCC4CCCC4)CC3)c2C(C)C)cn2ncnc12 [Example 109]
> 50000 nM | 54.2 nM | 3.33 nM | CCC(CC)N[C@H]1CC[C@H](NC(=O)c2n[nH]c(-c3cc(C)c4ncnn4c3)c2C(C)C)CC1 [Example 119]
5700 nM | 4.49 nM | 1.34 nM | Cc1cc(-c2[nH]nc(C(=O)N[C@H]3CC[C@H](N(CCC(C)C)CCC(C)C)CC3)c2C(C)C)cn2ncnc12 [Example 108]
29400 nM | 9.16 nM | 36.5 nM | Cc1cc(-c2[nH]nc(-c3nc4ccc(NC(C)C)cc4s3)c2C(C)C)cn2ncnc12 [Example 258]
6710 nM | 2.44 nM | 1.69 nM | Cc1cc(-c2cc(C(=O)NC3CCN(C(C)C)CC3)n[nH]2)cn2ncnc12 [Example 178, N-(1-isopropylpiperidin-4-yl)-5-(8-methyl-[1,2,4]triazolo[1,5-a]pyridin-6-yl)-1H-pyrazole-3-carboxamide]
